Reference: patent US20210322622A1, “COMPOSITIONS AND METHODS FOR PREPARATION OF COMPOSITE POLYMER FILMS ON NON-CONDUCTING SUBSTRATES, INCLUDING BANDAGES, AND THEIR USE FOR TREATING WOUNDS” (The Johns Hopkins University, priority 2018, published 2021)

How the values were obtained:
S. aureus strain Xen36 = assay: MIC of XEN36 for each antibiotic; assay type: cell-based, Staphylococcus aureus; settings: S. aureus XEN36; for MIC: Staphylococcus aureus, read-out: MIC of XEN36
Method: S. aureus strain Xen36 (PerkinElmer, Waltham, Mass.) previously derived from the clinical bacteremia isolate ATCC 49525 (Wright) was used in all experiments. (Francis et al., 2000). […] (Francis et al., 2000). Xen36 was prepared for inoculation as previously described. (Niska et al., 2013; Pribaz et al. (2012)).

[1] = In vitro release of antibiotics from PLGA/PCL composite coatings on titanium K-wires (HPLC); assay type: physicochemical; settings: for release kinetics after storage: stored coated pins, two-week in vitro release
Method: (§1) The release rate of the polymer composite film was measured by HPLC. Drug release studies were conducted using coated pins created with the same loading parameters as those used for later in vivo testing (10% (w/w) drug combinations) electrospun for 60 seconds at injection rates of 0.5 mL/h from each needle. Release rate of antibiotics from the composite polymer coating was characterized by placing coated pins in 200 μL pH 7.4 PBS buffer and incubating at 37° C. in an aluminum film-covered incubator to prevent possible light-induced drug degradation. Release media was changed at fixed time points over a period of two weeks and stored in a −20° C. freezer until analysis. Drug concentrations in release media for each day were determined via reverse-phase HPLC using a C-18 column in an Alliance HPLC system and Waters 2996 PDA detector. The mobile phase was a mixture of acetonitrile and water both mixed with 0.1% TFA acid, which was run at a gradient from (15%/85%) to (40%/60%) for a total runtime of 15 minutes per sample for the elution of Van/Rif and Lin/Rif drug loading groups. Elution of the Dap/Rif loading group was conducted using a mobile phase of (49%/51%) of acetonitrile and water both mixed with 0.1% TFA acid for a total run time of 11 minutes per sample. Concentrations of the drugs were quantified using wavelengths of 343 nm for Rif, 254 nm for Lin, 280 nm for Van and 223 nm for Dap using prepared standard curves for all three drugs. […] Quantification was performed through the derivatization of Gentamicin with ninhydrin at 95° C. for 15 minutes and detection with a Biotek Synergy2 plate reader.
(§2) Long-term efficacy of the antimicrobial activity was tested by storing electrospun pins at room temperature for 6 weeks, −20° C. for 6 weeks, and −80° C. for 8 months. Coated pins were protected from light during storage. These pins were then used in the same zone of inhibition assay as described hereinabove.
Drug release studies were conducted using coated pins created with the same loading parameters as detailed above. Release kinetics of antibiotics from the composite coating were characterized by placing coated pins in 200 μL of phosphate buffer saline (PBS, pH 7.4) at 37° C. Release media was changed daily over a period of two weeks and stored at −20° C. until analysis. Drug concentrations in release media were measured on days 1, 2, 3, 5, 7, 10 and 14 using a Waters Alliance 2690 HPLC system (Waters Corporation, Milford, Mass.) equipped with an Accucore RP-MS C18 column (100 mm×2.1 mm; Thermo Fisher Scientific) and a Waters 2996 PDA detector. The elution was carried out with a mobile phase of water and acetonitrile both mixed with 0.1% TFA at a flow rate of 1 mL/min at ambient temperature using a linear gradient elution program of 85% water to […] in 15 minutes. Concentrations of the drugs were quantified using wavelengths for Van (280 nm), Lin (254 nm), Dap (224 nm) and Rif (263 nm).

S. aureus = assay: In vitro zone of inhibition assay of coated K-wires; assay type: cell-based, Staphylococcus aureus; settings: 6 weeks room temperature, 6 weeks −20° C., 8 months
Source text: A zone of inhibition assay was used as an additional assay to evaluate the in vitro release of antibiotic(s) from the composite coating. Tryptic soy agar bacterial plates were inoculated with S. aureus bacteria cells to yield a bacterial lawn after overnight culture. After bacterial inoculation and before culturing the plates, two identical titanium K-wires loaded with either 10 w/w % Lin, 10 w/w % Van, or 10 w/w % Dap alone, or in combination with Rif were placed in two separate areas on the plate. After culturing the plates at 37° C. for 24 hours, the antimicrobial activity of the eluded antibiotic(s) into the agar was measured as a zone of inhibition (diameter [mm]) of the bacterial growth around the K-wire.
as §2, with “hereinabove. These antimicrobial results were further confirmed with a two-week in vitro release study to determine release kinetics after storage.” for “hereinabove.”
Tryptic soy agar (TSA) bacterial plates were inoculated with S. aureus to yield a bacterial lawn after overnight culture. Before culturing the plates, two titanium K-wires each loaded with the same combination of antibiotics from each set were placed in two separate areas on the plate. After culturing at 37° C. for 24 hours, the zone of inhibition (ZOI) (diameter/mm) of bacterial growth were measured.

[2] = Release kinetics of antibiotics from nanofiber-hydrogel composite sheet (HPLC); assay type: physicochemical
Source text: A sheet device was designed with the goal of reinforcing the implant soft tissue pocket, as well as serving as a platform for the local delivery of antibiotics. The device was composed of a polycaprolactone (PCL) nanofiber sheet core embedded within a nanofiber-hydrogel composite scaffold. The nanofiber core was created via random-pattern electrospinning of PCL dissolved in an organic solvent. An antibiotic-containing version was created by adding 1% w/w of linezolid and rifampicin to the starting PCL solution. All materials containing rifampicin were protected from light exposure to minimize risk of degradation. Next a composite scaffold was prepared by interfacially bonding 500-nm PCL nanofibers suspended within a hyaluronic acid matrix. The nanofiber sheet was then embedded within the composite scaffold and shaped to form a 1-mm thick sheet device. Release kinetics of each antibiotic were assessed using high-performance liquid chromatography (HPLC).

[3] = In vitro release of Gentamicin from PLGA nanofibers / composite coating (ninhydrin); assay type: physicochemical
Method: The drug groups tested all included Rifampin (Rif), and the second drug was varied among linezolid (Lin), vancomycin (Van), and daptomycin (Dap). Each drug group combination of Rif and a secondary drug was tested with five pin groups as shown in Sets 1-3 (FIG. 1E). To load the antibiotics into the polymer nanofibers or film, Rif and Lin were dissolved in corresponding 10% w/w PLGA or PCL polymer solution prior to electrospinning. Van or Dap was first dissolved in dimethyl sulfoxide (DMSO) to form a 20% (w/w) solution before being added into their respective polymer solutions to form a suspension. This suspension can be electrospun in a relatively uniform fashion. Suspensions using water as a solvent were also produced using the model drug Gentamicin (Gent). Briefly, Gent was dissolved in DI water to form a 30% (w/w) solution before being added to a PLGA solution dissolved in HFIP. The suspension was stabilized through prolonged sonication and vortexing prior to electrospinning.
as §1, with “drugs. As an example, FIG. 3A and FIG. 3B show the in vitro release profiles of Lin and Rif from the composite coating on titanium K-wire implants.” for “drugs.”

| Compound | MIC (S. aureus strain Xen36) | release kinetics after storage [1] | antimicrobial activity (zone of inhibition) after storage versus freshly prepared coatings (S. aureus) | complete release from the nanofiber-hydrogel composite sheet [2] | release from the nanofiber-hydrogel composite sheet within the first 24 hours [2] | time Rif remains above the MIC, tuned by PCL molecular weight or PCL layer thickness ([1]; in vitro release from composite coating) | MIC of XEN36 (S. aureus strain Xen36) | Gentamicin release profile ([3]; 50:50 PLGA) | release of Gentamicin above the MIC, controlled by polymer choice ([3]; 50:50 versus 75:25 PLGA) | Gentamicin release profile ([3]; 75:25 PLGA) | Day 1 release of Gentamicin ([3]; PLGA nanofibers alone) | Day 1 release of Gentamicin ([3]; PLGA nanofibers embedded in PCL film layer) | time Gentamicin concentration at MIC could be sustained ([3]; in vitro release from PLGA nanofibers) |
| --- | --- | --- | --- | --- | --- | --- | --- | --- | --- | --- | --- | --- | --- |
| CC(=O)NC[C@H]1CN(c2ccc(N3CCOCC3)c(F)c2)C(=O)O1 [Lin, linezolid] | 2 µg/mL | no difference in the release kinetics | no significant loss of antimicrobial activity | ≤ 3 days | 70% |  |  |  |  |  |  |  |  |
| CCCCCCCCCC(=O)N[C@@H](Cc1c[nH]c2ccccc12)C(=O)N[C@H](CC(N)=O)C(=O)N[C@@H](CC(=O)O)C(=O)N[C@@H]1C(=O)NCC(=O)N[C@@H](CCCN)C(=O)N[C@@H](CC(=O)O)C(=O)N[C@H](C)C(=O)N[C@@H](CC(=O)O)C(=O)NCC(=O)N[C@H](CO)C(=O)N[C@@H]([C@H](C)CC(=O)O)C(=O)N[C@@H](CC(=O)c2ccccc2N)C(=O)O[C@@H]1C [Dap, daptomycin] | 0.25 µg/mL | no difference in the release kinetics | no significant loss of antimicrobial activity |  |  |  |  |  |  |  |  |  |  |
| CO[C@H]1/C=C/O[C@@]2(C)Oc3c(C)c(O)c4c(O)c(c(/C=N/N5CCN(C)CC5)c(O)c4c3C2=O)NC(=O)/C(C)=C\C=C\[C@H](C)[C@H](O)[C@@H](C)[C@@H](O)[C@@H](C)[C@H](OC(C)=O)[C@@H]1C [Rif, Rifampin] | 0.5 µg/mL | reduced after storage at room temperature for six weeks, but not when the pins were stored at −20 °C | no significant loss of antimicrobial activity | ≤ 14 days | 70% | 2 to 5 days |  |  |  |  |  |  |  |
| Gentamicin |  |  |  |  |  |  | roughly 10 μg/mL | sustained release | 2 to 14 days | only a burst release | 80 % of total loading | less than 45 % of total loading | up to 14 days |
